In patent US20230057568A1, “COMPOUNDS FOR TREATING FAMILIAL DYSAUTONOMIA” (PTC THERAPEUTICS, INC., priority 2019, published 2023):

System: Elongator complex protein 1 (ELP1, also referred to as IKBKAP)
Experiment: IKBKAP-HTRF Assay
Type: cell-based, human
Settings: FD patient-derived fibroblasts GM04589, 48 hours incubation; for EC2x for IKBKAP protein expression (concentration producing two times the amount of IKBKAP protein vs DMSO vehicle control): 7-point concentration curve; for MFI (maximum fold increase in IKBKAP protein abundance relative to the vehicle control): HTRF
Summary of the method: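 Sandwich HTRF (anti-IKAP d2 and K(9+8)) on cell lysates measured IKBKAP protein after overnight 4 °C incubation, read at 665 and 620 nm. Lysates came from FD patient cells exposed 48 hours to 7-point compound dilutions, in triplicate. Outputs: maximum fold increase over vehicle, and EC2× (the concentration giving twice the DMSO-control protein level).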

| Compound | EC2x for IKBKAP protein expression (concentration producing two times the amount of IKBKAP protein vs DMSO vehicle control) | MFI (maximum fold increase in IKBKAP protein abundance relative to the vehicle control) |
| --- | --- | --- |
| CC[C@H](N)Cc1sc2c(NCc3sccc3F)nc(Cl)nc2c1C [Cpd 91, 6-[(2S)-2-aminobutyl]-2-chloro-N-[(3-fluorothiophen-2-yl)methyl]-7-methylthieno[3,2-d]pyrimidin-4-amine] | **** (between >0.005 μM and ≤0.02 μM) | ***** (>4.9) |
| Cc1c(C[C@H](C)N)sc2c(NCc3nc(F)cs3)nc(Cl)nc12 [Cpd 92, 6-[(2S)-2-aminopropyl]-2-chloro-N-[(4-fluoro-1,3-thiazol-2-yl)methyl]-7-methylthieno[3,2-d]pyrimidin-4-amine] | ***** (<0.005 μM) | ***** (>4.9) |
| Cc1c(C[C@H](C)N)sc2c(NCc3ncc(F)s3)nc(Cl)nc12 [Cpd 93, 6-[(2S)-2-aminopropyl]-2-chloro-N-[(5-fluoro-1,3-thiazol-2-yl)methyl]-7-methylthieno[3,2-d]pyrimidin-4-amine] | **** (between >0.005 μM and ≤0.02 μM) | ***** (>4.9) |
| Cc1c([C@@H](C)N)sc2c(NCc3ccco3)nc(Cl)nc12 [Cpd 94, 6-[(1R)-1-aminoethyl]-2-chloro-N-[(furan-2-yl)methyl]-7-methylthieno[3,2-d]pyrimidin-4-amine] | * (EC2×>1 μM) | * (MFI<1.9) |
| Clc1nc(NCc2ccncn2)c2sccc2n1 [Cpd 95, 2-chloro-N-[(pyrimidin-4-yl)methyl]thieno[3,2-d]pyrimidin-4-amine] | * (EC2×>1 μM) | *** (between >2.9 and <3.9) |
| Clc1nc(NCc2nccs2)c2sccc2n1 [Cpd 96, 2-chloro-N-[(1,3-thiazol-2-yl)methyl]thieno[3,2-d]pyrimidin-4-amine] | * (EC2×>1 μM) | ** (between >1.9 and <2.9) |
| Cc1c(C[C@@H](N)CCO)sc2c(NCc3ccco3)nc(Cl)nc12 [Cpd 97, (3S)-3-amino-4-(2-chloro-4-{[(furan-2-yl)methyl]amino}-7-methylthieno[3,2-d]pyrimidin-6-yl)butan-1-ol] | ***** (<0.005 μM) | ***** (>4.9) |
| Cc1c(C[C@H](C)N)sc2c(NCc3ncncc3F)nc(Cl)nc12 [Cpd 98, 6-[(2S)-2-aminopropyl]-2-chloro-N-[(5-fluoropyrimidin-4-yl)methyl]-7-methylthieno[3,2-d]pyrimidin-4-amine] | **** (between >0.005 μM and ≤0.02 μM) | ***** (>4.9) |
| COc1c(C[C@@H](N)CO)sc2c(NCc3cccs3)nc(Cl)nc12 [Cpd 99, (2R)-2-amino-3-(2-chloro-7-methoxy-4-{[(thiophen-2-yl)methyl]amino}thieno[3,2-d]pyrimidin-6-yl)propan-1-ol] | **** (between >0.005 μM and ≤0.02 μM) | *** (between >2.9 and <3.9) |
